According to ChEMBL document CHEMBL1140835, “Design, synthesis, and in vitro antitumor activity of new 1,4-diarylimidazole-2-ones and their 2-thione analogues” (2008):

Experiments:
Assay type in all cases: functional
SK-MEL-5 = assay: Antiproliferative activity against human SK-MEL-5 cells
[1] = Antiproliferative activity against human […] cells
RPMI-8226 = assay: Antiproliferative activity against human RPMI8226 cells
PC-3 = assay: Antiproliferative activity against human PC3 cells
EKVX = assay: Antiproliferative activity against human EKVX cells
SF-295 = assay: Antiproliferative activity against human SF295 cells
UO-31 = assay: Antiproliferative activity against human UO31 cells
HCT-15 = assay: Antiproliferative activity against human HCT15 cells
786-0 = assay: Antiproliferative activity against human 786-0 cells
Hs-578T = assay: Antiproliferative activity against human HS578T cells
CCRF-CEM = assay: Antiproliferative activity against human CCRF-CEM cells
HCT-116 = assay: Antiproliferative activity against human HCT116 cells
SF-539 = assay: Antiproliferative activity against human SF539 cells
DU-145 = assay: Antiproliferative activity against human DU145 cells
SNB-75 = assay: Antiproliferative activity against human SNB75 cells
HL-60 = assay: Antiproliferative activity against human HL60 cells
MOLT-4 = assay: Antiproliferative activity against human MOLT4 cells
HOP-92 = assay: Antiproliferative activity against human HOP92 cells; conditions: for TGI: read-out: pTGI (converted)
LOX IMVI = assay: Antiproliferative activity against human LOX IMVI cells; conditions: for TGI: read-out: pTGI (converted)
CAKI-1 = assay: Antiproliferative activity against human CAKI-1 cells
SR = assay: Antiproliferative activity against human SR cells; conditions: for TGI: read-out: pTGI (converted)
UACC-62 = assay: Antiproliferative activity against human UACC62 cells
RXF 393 = assay: Antiproliferative activity against human RXF393 cells

SMILES	GI50 (SK-MEL-5) [µM]	GI50 [1] [µM]	GI50 (RPMI-8226) [µM]	GI50 (PC-3) [µM]	GI50 (EKVX) [µM]	GI50 (SF-295) [µM]	GI50 (UO-31) [µM]	GI50 (HCT-15) [µM]	GI50 (786-0) [µM]	GI50 (Hs-578T) [µM]	GI50 (CCRF-CEM) [µM]	GI50 (HCT-116) [µM]	GI50 (SF-539) [µM]	GI50 (DU-145) [µM]	GI50 (SNB-75) [µM]	GI50 (HL-60) [µM]	GI50 (MOLT-4) [µM]	GI50 (HOP-92) [µM]	GI50 (LOX IMVI) [µM]	GI50 (CAKI-1) [µM]	also measured
COc1ccc(-n2cc(-c3ccc(OC)c(OC)c3)[nH]c2=S)cc1Cl	> 100	> 100	> 100	> 100	39.8	39.8	> 100	> 100	50.1	39.8	> 100	> 100	39.8	> 100	5.01	> 100	79.4	39.8	> 100	> 100	GI50 (SR): > 100 µM; GI50 (UACC-62): > 100 µM
COc1ccc(-n2cc(-c3ccc(Cl)cc3)[nH]c2=S)cc1Cl	39.8	20	50.1	31.6	39.8	25.1	20	> 100	20	25.1	63.1	50.1	20	39.8	20	> 100	39.8	15.8	100	25.1	GI50 (RXF 393): 25.1 µM; GI50 (UACC-62): 79.4 µM
COc1cc(-n2cc(-c3ccc(Cl)cc3)[nH]c2=O)cc(OC)c1OC	31.6	–	12.6	15.8	31.6	31.6	20	> 100	15.8	79.4	< 0.01	31.6	25.1	63.1	25.1	> 100	> 100	–	63.1	15.8	GI50 (SR): > 100 µM; GI50 (UACC-62): 25.1 µM
COc1ccc(-c2cn(-c3ccc(OC)c(OC)c3)c(=O)[nH]2)cc1	63.1	50.1	> 100	> 100	> 100	> 100	> 100	> 100	> 100	> 100	> 100	> 100	> 100	> 100	25.1	39.8	1.58	> 100	> 100	> 100	GI50 (SR): 0.1 µM; TGI (SR): 0.631 µM; GI50 (UACC-62): > 100 µM
COc1ccc(-c2cn(-c3ccc(Cl)cc3)c(=S)[nH]2)cc1OC	3.16	6.31	3.98	63.1	12.6	6.31	39.8	5.01	6.31	20	> 100	3.98	31.6	12.6	15.8	3.16	> 100	0.316	1.58	3.16	GI50 (RXF 393): 3.16 µM; TGI (HOP-92): 7.94 µM; LC50 (LOX IMVI): 6.31 µM; TGI (LOX IMVI): 3.16 µM; GI50 (SR): 3.16 µM
COc1cc(-n2cc(-c3ccccc3)[nH]c2=O)cc(OC)c1OC	39.8	31.6	> 100	39.8	25.1	39.8	39.8	79.4	25.1	31.6	–	63.1	20	1.58	12.6	63.1	> 100	20	> 100	39.8	GI50 (SR): > 100 µM; GI50 (UACC-62): 39.8 µM
COc1cc(-c2cn(-c3ccc(Cl)cc3)c(=O)[nH]2)cc(OC)c1OC	> 100	> 100	> 100	> 100	> 100	> 100	> 100	> 100	> 100	> 100	> 100	> 100	> 100	> 100	> 100	0.398	0.0199	> 100	–	> 100	GI50 (RXF 393): > 100 µM; GI50 (SR): 0.0316 µM; TGI (SR): 39.8 µM; GI50 (UACC-62): > 100 µM
COc1ccc(-n2cc(-c3cc(OC)c(OC)c(OC)c3)[nH]c2=O)cc1Cl	> 100	> 100	> 100	> 100	> 100	39.8	> 100	> 100	25.1	31.6	> 100	> 100	31.6	–	6.31	> 100	> 100	15.8	> 100	> 100	GI50 (SR): 50.1 µM; GI50 (UACC-62): 50.1 µM
COc1ccc(-n2cc(-c3cc(OC)c(OC)c(OC)c3)[nH]c2=S)cc1Cl	25.1	31.6	5.01	50.1	39.8	39.8	39.8	> 100	25.1	15.8	0.631	25.1	20	31.6	20	> 100	> 100	31.6	6.31	5.01	GI50 (RXF 393): 15.8 µM; GI50 (UACC-62): > 100 µM
COc1ccc(/C=C\c2cc(OC)c(OC)c(OC)c2)cc1O [COMBRETASTATIN A4]	0.01	50.1	0.158	0.0316	0.398	0.0631	0.2	0.0316	0.0199	0.158	0.1	0.0316	0.0398	0.01	0.794	–	0.1	0.2	0.01	0.0398	GI50 (RXF 393): 0.794 µM; TGI (HOP-92): 39.8 µM; TGI (LOX IMVI): 12.6 µM; GI50 (SR): 0.126 µM; TGI (SR): 79.4 µM; GI50 (UACC-62): 0.01 µM
